Results: patent US20230167118A1, “DEGRADATION OF BRUTON'S TYROSINE KINASE (BTK) BY CONJUGATION OF BTK INIDBITORS WITH E3 LIGASE LIGAND AND METHODS OF USE” (BEIGENE, LTD., priority 2020, published 2023)
Counter-ions that a name gives are not always drawn.

Columns and labels:
[1] = test system: HEK-293 cells; test: HEK-293 Cytotoxicity Assay (CellTiter-Glo); format: cell-based; conditions: Homo sapiens, HEK293, 72 h incubation, CellTiter-Glo luminescence
Method in brief: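 Four-parameter fit of % inhibition gives IC50, from CellTiter-Glo luminescent viability read-out. Cells exposed for 72 h to an 8-point, 4-fold series at 0.2% DMSO.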

[2] = biological target: T1, BTK (Homo sapiens, UniProt Q06187); test: Cell Degradation: BTK degradation in TMD-8 cells, HTRF assay; format: cell-based; conditions: 6 h treatment, IC50 (DC50) of BTK degradation
T1 construct: High control=Cell group with added DMSO and without compound, indicating microplate readings without BTK degradation; endogenous in cells; host or cells: TMD-8 cells
Method in brief: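 BTK levels read by HTRF (665 vs 620 nm) in lysates of TMD-8 cells after 6 h compound exposure (eight doses, 6-fold steps, 0.2% DMSO). Percent degradation relative to controls; four-parameter curve fitting gave DC50, with Dmax the top degradation.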

T1 sequence (Q06187 whole entry): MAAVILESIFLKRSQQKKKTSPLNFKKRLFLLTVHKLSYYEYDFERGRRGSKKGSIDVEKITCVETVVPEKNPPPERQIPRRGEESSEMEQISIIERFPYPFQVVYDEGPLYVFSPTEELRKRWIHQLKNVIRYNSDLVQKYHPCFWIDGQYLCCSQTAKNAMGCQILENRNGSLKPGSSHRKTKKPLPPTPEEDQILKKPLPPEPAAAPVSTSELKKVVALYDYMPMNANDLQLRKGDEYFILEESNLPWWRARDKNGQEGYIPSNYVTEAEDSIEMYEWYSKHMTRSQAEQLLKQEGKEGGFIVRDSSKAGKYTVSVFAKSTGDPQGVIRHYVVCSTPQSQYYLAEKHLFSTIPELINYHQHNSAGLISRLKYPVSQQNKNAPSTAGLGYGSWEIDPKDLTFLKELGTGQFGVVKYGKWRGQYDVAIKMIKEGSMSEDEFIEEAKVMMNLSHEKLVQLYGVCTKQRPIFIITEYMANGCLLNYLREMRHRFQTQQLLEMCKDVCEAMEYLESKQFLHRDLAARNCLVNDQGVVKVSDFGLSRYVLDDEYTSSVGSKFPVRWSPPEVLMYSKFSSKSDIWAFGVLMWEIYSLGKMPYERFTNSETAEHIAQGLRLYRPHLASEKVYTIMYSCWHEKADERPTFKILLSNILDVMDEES

Row | Compound | DC50 [2] | IC50 [1]
1 | Cc1cc(-c2ncnc3[nH]c(-c4ccc(C5CCN(CC6CCN(c7ccc(N8CCC(=O)NC8=O)cc7F)CC6)CC5)cc4)cc23)ccc1CNC(=O)c1nc(C(C)(C)C)no1 [Example 39, 3-(tert-butyl)-N-(4-(6-(4-(1-((1-(4-(2,4-dioxotetrahydropyrimidin-1(2H)-yl)-2-fluorophenyl)piperidin-4-yl)methyl)piperidin-4-yl)phenyl)-7H-pyrrolo[2,3-d]pyrimidin-4-yl)-2-methylbenzyl)-1,2,4-oxadiazole-5-carboxamide Formate] | 1.1 nM | > 10000 nM
2 | Cc1cc(-c2ncnc3[nH]c(-c4ccc(C5CCN(CC6CCN(c7ccc(N8CCC(=O)NC8=O)cc7)CC6)CC5)cc4)cc23)ccc1CNC(=O)c1cn(C(C)(C)C)nn1 [Example 40, 1-(tert-butyl)-N-(4-(6-(4-(1-((1-(4-(2,4-dioxotetrahydropyrimidin-1(2H)-yl)phenyl)piperidin-4-yl)methyl)piperidin-4-yl)phenyl)-7H-pyrrolo[2,3-d]pyrimidin-4-yl)-2-methylbenzyl)-1H-1,2,3-triazole-4-carboxamide] | 0.63 nM | > 10000 nM
3 | Cc1cc(-c2ncnc3[nH]c(-c4ccc(N5CCN(CC6CCN(c7ccc(N8CCC(=O)NC8=O)cc7)CC6)CC5)cc4)cc23)ccc1[C@@H](C)NC(=O)c1noc(C(C)(C)C)n1 [Example 41, (R)-5-(tert-butyl)-N-(1-(4-(6-(4-(4-((1-(4-(2,4-dioxotetrahydropyrimidin-1(2H)-yl)phenyl)piperidin-4-yl)methyl)piperazin-1-yl)phenyl)-7H-pyrrolo[2,3-d]pyrimidin-4-yl)-2-methylphenyl)ethyl)-1,2,4-oxadiazole-3-carboxamide] | 1.3 nM | > 10000 nM
4 | CC(C)(C)c1noc(C(=O)NCc2ccc(-c3ncnc4[nH]c(-c5ccc(N6CCN(CC7CCN(c8ccc(N9CCC(=O)NC9=O)cc8)CC7)CC6)nc5)cc34)cc2F)n1 [Example 42, 3-(tert-butyl)-N-(4-(6-(6-(4-((1-(4-(2,4-dioxotetrahydropyrimidin-1(2H)-yl)phenyl)piperidin-4-yl)methyl)piperazin-1-yl)pyridin-3-yl)-7H-pyrrolo[2,3-d]pyrimidin-4-yl)-2-fluorobenzyl)-1,2,4-oxadiazole-5-carboxamide] | 0.51 nM | > 10000 nM
5 | COc1cc(N2CCC(CN3CCN(c4ccc(-c5cc6c(-c7ccc([C@@H](C)NC(=O)c8nc(C(C)(C)C)no8)c(C)c7)ncnc6[nH]5)cc4)CC3)CC2)ccc1N1CCC(=O)NC1=O [Example 45, (R)-3-(tert-butyl)-N-(1-(4-(6-(4-(4-((1-(4-(2,4-dioxotetrahydropyrimidin-1(2H)-yl)-3-methoxyphenyl)piperidin-4-yl)methyl)piperazin-1-yl)phenyl)-7H-pyrrolo[2,3-d]pyrimidin-4-yl)-2-methylphenyl)ethyl)-1,2,4-oxadiazole-5-carboxamide] | 1.8 nM | > 10000 nM
6 | Cc1cc(-c2ncnc3[nH]c(-c4ccc(N5CCN(CC6CCN(c7ccc(N8CCC(=O)NC8=O)cc7)CC6)CC5)cc4)cc23)ccc1CNC(=O)c1csc(C(C)(C)C)n1 [Example 46, 2-(tert-butyl)-N-(4-(6-(4-(4-((1-(4-(2,4-dioxotetrahydropyrimidin-1(2H)-yl)phenyl)piperidin-4-yl)methyl)piperazin-1-yl)phenyl)-7H-pyrrolo[2,3-d]pyrimidin-4-yl)-2-methylbenzyl)thiazole-4-carboxamide] | 5.3 nM | > 10000 nM
7 | Cc1cc(-c2ncnc3[nH]c(-c4ccc(N5CCN(CC6CCN(c7ccc(N8CCC(=O)NC8=O)cc7)CC6)CC5)cc4)cc23)ccc1CNC(=O)c1cnc(C(C)(C)C)s1 [Example 47, 2-(tert-butyl)-N-(4-(6-(4-(4-((1-(4-(2,4-dioxotetrahydropyrimidin-1(2H)-yl)phenyl)piperidin-4-yl)methyl)piperazin-1-yl)phenyl)-7H-pyrrolo[2,3-d]pyrimidin-4-yl)-2-methylbenzyl)thiazole-5-carboxamide] | 1.8 nM | > 10000 nM
8 | Cc1cc(-c2ncnc3[nH]c(-c4ccc(OC5CCN(CC6CCN(c7ccc(N8CCC(=O)NC8=O)cc7)CC6)CC5)cc4)cc23)ccc1CNC(=O)c1nc(C(C)(C)C)no1 [Example 49, 3-(tert-butyl)-N-(4-(6-(4-((1-((1-(4-(2,4-dioxotetrahydropyrimidin-1(2H)-yl)phenyl)piperidin-4-yl)methyl)piperidin-4-yl)oxy)phenyl)-7H-pyrrolo[2,3-d]pyrimidin-4-yl)-2-methylbenzyl)-1,2,4-oxadiazole-5-carboxamide] | 1.3 nM | > 10000 nM
9 | Cc1cc(-c2ncnc3[nH]c(-c4ccc(N5CCN(CC6CCN(c7ccc(N8CCC(=O)NC8=O)cc7)CC6)CC5)cc4)cc23)ccc1CNC(=O)c1noc(C(C)(C)C(F)(F)F)n1 [Example 50, N-(4-(6-(4-(4-((1-(4-(2,4-dioxotetrahydropyrimidin-1(2H)-yl)phenyl)piperidin-4-yl)methyl)piperazin-1-yl)phenyl)-7H-pyrrolo[2,3-d]pyrimidin-4-yl)-2-methylbenzyl)-5-(1,1,1-trifluoro-2-methylpropan-2-yl)-1,2,4-oxadiazole-3-carboxamide] | 1.1 nM | > 10000 nM
10 | Cc1cc(-c2ncnc3[nH]c(-c4ccc(N5CCN(CC6CCN(c7ccc(N8CCC(=O)NC8=O)cc7)CC6)CC5)cc4)cc23)ccc1CNC(=O)c1noc(C2(C(F)(F)F)CC2)n1 [Example 51, N-(4-(6-(4-(4-((1-(4-(2,4-dioxotetrahydropyrimidin-1(2H)-yl)phenyl)piperidin-4-yl)methyl)piperazin-1-yl)phenyl)-7H-pyrrolo[2,3-d]pyrimidin-4-yl)-2-methylbenzyl)-5-(1-(trifluoromethyl)cyclopropyl)-1,2,4-oxadiazole-3-carboxamide] | 0.38 nM | > 10000 nM

Second part, led by results:

Row | DC50 [2] | Compound | IC50 [1]
11 | > 2000 nM | Cc1cc(-c2ncnc3[nH]c(-c4ccc(N5CCN(CC6CCN(c7cc(F)ccc7N7CCC(=O)NC7=O)CC6)CC5)cc4)cc23)ccc1[C@@H](C)NC(=O)c1nc(C(C)(C)C)no1 [Example 43, (R)-3-(tert-butyl)-N-(1-(4-(6-(4-(4-((1-(2-(2,4-dioxotetrahydropyrimidin-1(2H)-yl)-5-fluorophenyl)piperidin-4-yl)methyl)piperazin-1-yl)phenyl)-7H-pyrrolo[2,3-d]pyrimidin-4-yl)-2-methylphenyl)ethyl)-1,2,4-oxadiazole-5-carboxamide] | > 10000 nM
12 | 1.2 nM | Cc1cc(-c2ncnc3[nH]c(-c4ccc(N5CCN(CC6CCN(c7ccc(N8CCC(=O)NC8=O)c(C)c7)CC6)CC5)cc4)cc23)ccc1[C@@H](C)NC(=O)c1nc(C(C)(C)C)no1 [Example 44, (R)-3-(tert-butyl)-N-(1-(4-(6-(4-(4-((1-(4-(2,4-dioxotetrahydropyrimidin-1(2H)-yl)-3-methylphenyl)piperidin-4-yl)methyl)piperazin-1-yl)phenyl)-7H-pyrrolo[2,3-d]pyrimidin-4-yl)-2-methylphenyl)ethyl)-12,4-oxadiazole-5-carboxamide] | > 10000 nM
13 | 1.7 nM | Cc1cc(-c2ncnc3[nH]c(-c4ccc(N5CCN(CC6CCN(c7ccc(C8CCC(=O)NC8=O)cc7)CC6)CC5)nc4)cc23)ccc1[C@@H](C)NC(=O)c1nc(C(C)(C)C)no1 (stereo partly drawn) [Example 48, 3-(tert-butyl)-N-((1R)-1-(4-(6-(6-(4-((1-(4-(2,6-dioxopiperidin-3-yl)phenyl)piperidin-4-yl)methyl)piperazin-1-yl)pyridin-3-yl)-7H-pyrrolo[2,3-d]pyrimidin-4-yl)-2-methylphenyl)ethyl)-1,2,4-oxadiazole-5-carboxamide] | > 10000 nM
14 | 1.7 nM | Cc1cc(N2CCC(CN3CCN(c4ccc(-c5cc6c(-c7ccc([C@@H](C)NC(=O)c8nc(C(C)(C)C)no8)c(F)c7)ncnc6[nH]5)cn4)CC3)CC2)ccc1N1CCC(=O)NC1=O [Example 52, (R)-3-(tert-butyl)-N-(1-(4-(6-(6-(4-((1-(4-(2,4-dioxotetrahydropyrimidin-1(2H)-yl)-3-methylphenyl)piperidin-4-yl)methyl)piperazin-1-yl)pyridin-3-yl)-7H-pyrrolo[2,3-d]pyrimidin-4-yl)-2-fluorophenyl)ethyl)-1,2,4-oxadiazole-5-carboxamide] | > 10000 nM
15 | > 2000 nM | Cc1cc(-c2ncnc3[nH]c(-c4ccc(N5CCN(CCC6CCN(c7ccc([C@H]8CCC(=O)NC8=O)cc7)CC6)CC5)nc4)cc23)ccc1[C@@H](C)NC(=O)c1nc(C(C)(C)C)no1 [Example 53, 3-(tert-butyl)-N-((R)-1-(4-(6-(6-(4-(2-(1-(4-((R)-2,6-dioxopiperidin-3-yl)phenyl)piperidin-4-yl)ethyl)piperazin-1-yl)pyridin-3-yl)-7H-pyrrolo[2,3-d]pyrimidin-4-yl)-2-methylphenyl)ethyl)-1,2,4-oxadiazole-5-carboxamide] | > 10000 nM
16 | 3.7 nM | Cc1cc(-c2ncnc3[nH]c(-c4ccc(N5CCN(CCC6CCN(c7ccc([C@@H]8CCC(=O)NC8=O)cc7)CC6)CC5)nc4)cc23)ccc1[C@@H](C)NC(=O)c1nc(C(C)(C)C)no1 [Example 54, 3-(tert-butyl)-N-((R)-1-(4-(6-(6-(4-(2-(1-(4-((S)-2,6-dioxopiperidin-3-yl)phenyl)piperidin-4-yl)ethyl)piperazin-1-yl)pyridin-3-yl)-7H-pyrrolo[2,3-d]pyrimidin-4-yl)-2-methylphenyl)ethyl)-1,2,4-oxadiazole-5-carboxamide] | > 10000 nM
17 | 3.2 nM | Cc1cc(-c2ncnc3[nH]c(-c4ccc(N5CCN(CC6CCN(c7ccc(C8CCC(=O)NC8=O)cc7)CC6)CC5)cc4)cc23)ccc1[C@@H](C)NC(=O)c1nc(C(C)(C)C)no1 (stereo partly drawn) [Example 55, (R)-3-(tert-butyl)-N-(1-(4-(6-(4-(4-((1-(4-(2,6-dioxopiperidin-3-yl)phenyl)piperidin-4-yl)methyl)piperazin-1-yl)phenyl)-7H-pyrrolo[2,3-d]pyrimidin-4-yl)-2-methylphenyl)ethyl)-1,2,4-oxadiazole-5-carboxamide] | > 10000 nM
